{"source": "paper PMC11236204", "about": "(PLOS Pathogens, 2024)", "key": {"RVFV MP-12 [1]": {"test_system": "RVFV MP-12", "format": "cell-based, Rift Valley fever virus", "design": "relative RVFV infection in neurons treated with TLR2 ligands, Rep 1 / relative RVFV infection in neurons treated with TLR2 ligands, Rep 2: unit not given here"}, "RVFV MP-12 [2]": {"test_system": "RVFV MP-12", "format": "cell-based, Rift Valley fever virus", "settings": "24h"}, "RVFV-DiD": {"test_system": "RVFV-DiD", "format": "cell-based, Rift Valley fever virus", "settings": "1h"}, "VSV-GFP [3]": {"test_system": "VSV-GFP", "settings": "2 h"}, "VSV-GFP [4]": {"test_system": "VSV-GFP", "format": "cell-based, vesicular stomatitis virus"}, "RVFV MP-12 [5]": {"test_system": "RVFV MP-12", "format": "cell-based, Rift Valley fever virus"}, "RVFV MP-12 [6]": {"test_system": "RVFV MP-12", "format": "cell-based, Rift Valley fever virus", "settings": "10μg/mL"}, "RVFV MP-12 [7]": {"test_system": "RVFV MP-12", "format": "cell-based, Rift Valley fever virus", "remark": "listed apart in the source"}, "RVFV ZH501 [8]": {"test_system": "RVFV ZH501", "design": "species or system mouse (C57BL/6)", "settings": "mouse, in vivo"}, "RVFV MP-12 [9]": {"test_system": "RVFV MP-12", "format": "cell-based, Rift Valley fever virus", "settings": "for RVFV RNA after lipopeptide pretreatment: 10μg/mL for 4h"}, "RVFV MP-12 [10]": {"test_system": "RVFV MP-12", "format": "cell-based, Rift Valley fever virus", "remark": "listed apart in the source"}, "RVFV ZH501 [11]": {"test_system": "RVFV ZH501", "design": "species or system mouse (C57BL/6)", "settings": "mouse, in vivo", "remark": "listed apart in the source"}, "[12]": {"test_system": "VSV-RVFV (recombinant VSV expressing RVFV glycoproteins Gn and Gc)", "format": "cell-based, vesicular stomatitis virus / RVFV ZH501 glycoproteins", "settings": "14h"}, "RVFV ZH501 [13]": {"test_system": "RVFV ZH501", "design": "species or system mouse (C57BL/6)", "settings": "mouse, in vivo", "remark": "listed apart in the source"}, "RVFV MP-12 [14]": {"test_system": "RVFV MP-12", "format": "cell-based, Rift Valley fever virus", "settings": "10μg/mL", "remark": "listed apart in the source"}, "RVFV ZH501 [15]": {"test_system": "RVFV ZH501", "settings": "mouse, in vivo"}, "RVFV MP-12 [16]": {"test_system": "RVFV MP-12", "format": "cell-based, Rift Valley fever virus", "remark": "listed apart in the source"}, "RVFV MP-12 [17]": {"test_system": "RVFV MP-12"}, "RVFV ZH501 [18]": {"test_system": "RVFV ZH501", "design": "species or system mouse (C57BL/6)", "settings": "mouse, in vivo", "remark": "listed apart in the source"}, "[19]": {"test_system": "VSV-RVFV (recombinant VSV expressing RVFV glycoproteins Gn and Gc)", "format": "cell-based, vesicular stomatitis virus / RVFV ZH501 glycoproteins"}, "RVFV MP-12 [20]": {"test_system": "RVFV MP-12", "format": "cell-based, Rift Valley fever virus", "settings": "10μg/mL for 4h; 15h"}, "[21]": {"test_system": "Ifit2, Cxcl10, Tnfa, Cxcl1 RNA", "format": "cell-based, rat"}, "La Crosse virus (LACV)": {"test_system": "La Crosse virus (LACV)", "format": "cell-based"}}, "note": "Where “and” joins values, the source holds several entries; their conditions need not be identical. Identical values can stand only once. Like-named read-outs stand apart in the source and are kept apart here. Peptide text beside a SMILES is read from it. * marks the point of attachment. X1 = CCCCCCCCCCCCCCCC(=O)OCC(C*)OC(=O)CCCCCCCCCCCCCCC; Palmitoyl = CCCCCCCCCCCCCCCC(=O)*", "data": [{"molecule": "2'3'-c-di-AMP", "values": [{"measurement": "Rep 1 rel infection", "setting": "RVFV MP-12 [1]", "result": "1.031 and 1.083"}, {"measurement": "Rep 2 rel infection", "setting": "RVFV MP-12 [1]", "result": "1.123 and 1.1792"}]}, {"molecule": "CO/C1=C\\C(C)=C\\[C@@H](C)[C@@H](O)[C@@H](C)C/C(C)=C/C=C/[C@H](OC)[C@@H]([C@@H](C)[C@@H](O)[C@H](C)[C@@]2(O)C[C@@H](O)[C@H](C)[C@@H](C(C)C)O2)OC1=O", "note": "[BafA, bafilomycin A1]", "values": [{"measurement": "RVFV infection after pulse at pH 7.6", "setting": "RVFV MP-12 [2]", "result": "blocked infection"}, {"measurement": "RVFV infection in acid-washed cells (pH 5.2)", "setting": "RVFV MP-12 [2]", "result": "did not block infection"}, {"measurement": "number, intensity, and area of DiD puncta", "setting": "RVFV-DiD", "result": "decreased"}]}, {"molecule": "CCNCc1nc2c(N)nc3ccccc3c2n1CC(C)(C)O", "note": "[Gardiquimod]", "values": [{"measurement": "neurotoxicity in screen (relative survival of neurons)", "setting": "rat cortical neurons", "result": "neurotoxic"}]}, {"molecule": "CC(C)Cn1cnc2c(N)nc3ccccc3c21", "note": "[Imiquimod]", "values": [{"measurement": "neurotoxicity in screen (relative survival of neurons)", "setting": "rat cortical neurons", "result": "neurotoxic"}]}, {"molecule": "CCCCCCCCCCCCCCCC(=O)N[C@@H](CSCC(COC(=O)CCCCCCCCCCCCCCC)OC(=O)CCCCCCCCCCCCCCC)C(=O)N[C@@H](CO)C(=O)N[C@@H](CCCCN)C(=O)N[C@@H](CCCCN)C(=O)N[C@@H](CCCCN)C(=O)N[C@@H](CCCCN)C(=O)O", "note": "(some centres unmarked) [Pam3CSK4] (Palmitoyl-C(X1)SKKKK-OH)", "values": [{"measurement": "IC50 against VSV", "setting": "VSV-GFP [3]", "result": "> 10", "unit": "µg/mL"}, {"measurement": "VSV RNA replication", "setting": "VSV-GFP [4]", "result": "unchanged"}, {"measurement": "internalized RVFV RNA", "setting": "RVFV MP-12 [5]", "result": "no difference"}, {"measurement": "viral RNA bound to cells", "setting": "RVFV MP-12 [6]", "result": "did not change"}, {"measurement": "internalized RVFV RNA", "setting": "RVFV MP-12 [7]", "result": "no difference"}, {"measurement": "decrease of viral replication in the brain", "setting": "RVFV ZH501 [8]", "result": "more than 5 logs"}, {"measurement": "RVFV RNA after lipopeptide pretreatment", "setting": "RVFV MP-12 [9]", "result": "decreased RVFV RNA"}, {"measurement": "RVFV RNA levels in the presence of TPCA-1 or IKK 16", "setting": "RVFV MP-12 [9]; 10μg/mL, 24h", "result": "significantly decreased"}, {"measurement": "Rep 1 rel infection", "setting": "RVFV MP-12 [10]", "result": "1.242 and 0.7928"}, {"measurement": "Rep 2 rel infection", "setting": "RVFV MP-12 [10]", "result": "1.2338 and 0.6802"}, {"measurement": "RVFV titers in the liver", "setting": "RVFV ZH501 [11]", "result": "significantly decreased"}, {"measurement": "RVFV infection in DMSO treated cells", "setting": "RVFV MP-12 [2]; 10μg/mL", "result": "inhibited RVFV infection"}, {"measurement": "RVFV infection in acid-washed, BafA-treated cells", "setting": "RVFV MP-12 [2]; 10μg/mL, pH 5.2", "result": "decreased RVFV infection"}, {"measurement": "VSV-RVFV replication", "setting": "[12]", "result": "decreased VSV-RVFV replication"}, {"measurement": "infection relative to vehicle in screen", "setting": "RVFV MP-12 [1]", "result": "below 60 % of vehicle"}, {"measurement": "relative RVFV infection in neurons treated with TLR2 ligands, Rep 1", "setting": "RVFV MP-12 [1]", "result": 26.2716}, {"measurement": "relative RVFV infection in neurons treated with TLR2 ligands, Rep 2", "setting": "RVFV MP-12 [1]", "result": 51.9474}, {"measurement": "RVFV nucleoprotein immunofluorescence in brain and liver", "setting": "RVFV ZH501 [13]", "result": "decreased viral replication in the brain and liver"}, {"measurement": "hemorrhages caused by RVFV in the liver (H & E)", "setting": "RVFV ZH501 [13]", "result": "reduced hemorrhages"}, {"measurement": "viral RNA bound to cells", "setting": "RVFV MP-12 [14]", "result": "did not change"}, {"measurement": "number, intensity, and area of DiD puncta", "setting": "RVFV-DiD", "result": "decreased"}, {"measurement": "survival of mice treated with Pam3CSK4 alone", "setting": "RVFV ZH501 [15]", "result": "all mice treated with Pam3CSK4 alone survived"}, {"measurement": "Neutralization (relative RVFV infection)", "setting": "RVFV MP-12 [16]", "result": "1.27 and 1.194 and 1.159 and 1.08"}, {"measurement": "RVFV infection, neutralization condition", "setting": "RVFV MP-12 [16]; 24 hours", "result": "failed to neutralize RVFV"}, {"measurement": "Mouse cortical neurons Rel. infection", "setting": "RVFV MP-12 [17]; 0.016 ug/mL", "result": "0.9744 and 0.948 and 1.028"}, {"measurement": "Mouse cortical neurons Rel. infection", "setting": "RVFV MP-12 [17]; 0.08 ug/mL", "result": "1.018 and 0.9269 and 0.9842"}, {"measurement": "Mouse cortical neurons Rel. infection", "setting": "RVFV MP-12 [17]; 0.4 ug/mL", "result": "1.0033 and 0.9456 and 0.9907"}, {"measurement": "Mouse cortical neurons Rel. infection", "setting": "RVFV MP-12 [17]; 2 ug/mL", "result": "1.058 and 0.9085 and 1.0272"}, {"measurement": "Mouse cortical neurons Rel. infection", "setting": "RVFV MP-12 [17]; 10 ug/mL", "result": "0.3619 and 0.3566 and 0.3035"}, {"measurement": "Neurologic disease at 3dpi? No (number of mice)", "setting": "RVFV ZH501 [18]", "result": "2 and 3"}, {"measurement": "Neurologic disease at 3dpi? Yes (number of mice)", "setting": "RVFV ZH501 [18]", "result": 0}, {"measurement": "mice with signs of severe (neurologic) disease", "setting": "RVFV ZH501 [18]", "result": "zero out of three and 0/3"}, {"measurement": "VSV-RVFV replication", "setting": "[19]", "result": "decreased VSV-RVFV replication"}, {"measurement": "RVFV titers", "setting": "RVFV MP-12 [20]", "result": "3.7 x 10^4 PFU / mL and 3.2 x 10^4 PFU / mL"}]}, {"molecule": "NC(=O)Nc1sc(-c2ccc(F)cc2)cc1C(N)=O", "note": "[TPCA-1, 2-[(aminocarbonyl)amino]-5-(4-fluorophenyl)-3-thiophenecarboxamide]", "values": [{"measurement": "transcription of NF-κB target genes Tnfa and Cxcl1 after Pam3CSK4 stimulation", "setting": "[21]", "result": "blunted transcription"}]}, {"molecule": "FSL-1", "values": [{"measurement": "relative RVFV infection in neurons treated with TLR2 ligands, Rep 1", "setting": "RVFV MP-12 [1]", "result": 105.077}, {"measurement": "relative RVFV infection in neurons treated with TLR2 ligands, Rep 2", "setting": "RVFV MP-12 [1]", "result": 120.652}]}, {"molecule": "IKK 16", "values": [{"measurement": "transcription of NF-κB target genes Tnfa and Cxcl1 after Pam3CSK4 stimulation", "setting": "[21]", "result": "blunted transcription"}]}, {"molecule": "Pam2CSK4", "values": [{"measurement": "VSV RNA replication", "setting": "VSV-GFP [4]", "result": "no antiviral effect"}, {"measurement": "Rel. Fold change Cxcl1 RNA", "setting": "[21]", "result": "1030.97 and 740.202"}, {"measurement": "Rel. Fold change Tnfa RNA", "setting": "[21]", "result": "157.572 and 100.256"}, {"measurement": "inflammatory gene transcription (Tnfa, Cxcl1, Cxcl10)", "setting": "[21]; 10μg/mL for 4h", "result": "induced inflammatory gene transcription"}, {"measurement": "Rel. Fold change RVFV RNA", "setting": "RVFV MP-12 [9]", "result": "0.741 and 1.189"}, {"measurement": "RVFV RNA after lipopeptide pretreatment", "setting": "RVFV MP-12 [9]", "result": "no antiviral effect"}, {"measurement": "RVFV infection in neurons in screen", "setting": "RVFV MP-12 [1]", "result": "did not decrease RVFV infection"}, {"measurement": "Rep 1 rel infection", "setting": "RVFV MP-12 [1]", "result": "1.076 and 1.061"}, {"measurement": "relative RVFV infection in neurons treated with TLR2 ligands, Rep 1", "setting": "RVFV MP-12 [1]", "result": 106.055}, {"measurement": "relative RVFV infection in neurons treated with TLR2 ligands, Rep 2", "setting": "RVFV MP-12 [1]", "result": 122.343}, {"measurement": "Rel. LACV RNA", "setting": "La Crosse virus (LACV)", "result": "0.9766 and 0.5238 and 0.6648 and 0.9475"}, {"measurement": "antiviral effect on LACV (qPCR and microscopy)", "setting": "La Crosse virus (LACV)", "result": "no antiviral effect"}, {"measurement": "Rel. VSV-RVFV RNA", "setting": "[19]", "result": "0.4225 and 0.2236 and 0.215"}, {"measurement": "VSV-RVFV replication", "setting": "[19]", "result": "also reduced VSV-RVFV infection, although it was significantly weaker than Pam3CSK4"}]}]}
